Test results taken from patent publication US4208514A, “4(3H)-Oxobenzo-2,1,3-thiadiazine-2,2-dioxides” (The Dow Chemical Company, priority 1976, dated 1980).

Columns and labels:
Assay type in all cases: in vivo
Soybean = assay: Selective post-emergent greenhouse test, Soybean (crop injury); settings: Glycine max, post-emergence, 336 h, 2 weeks, read-out: % Control Soybean; for plant injury at 358.672 g/ha: 0.32 lbs/acre; for plant injury at 706.135 g/ha: 0.63 lbs/acre
Description: (§1) So as to illustrate clearly the phytotoxic properties of the various active ingredients of the present invention, a group of controlled greenhouse experiments is described below.
(§2) Various species of plants, both broadleaf weeds and valuable crops, were planted in beds of good agricultural soil in a greenhouse. After the plants had emerged and grown to a height of about 2-6 inches, a portion of the plants were sprayed with an aqueous mixture, made by mixing a selected active ingredient and emulsifier or dispersant with water to provide solution containing 250 or 125 ppm active ingredient, employing sufficient amounts of the treating composition to provide low post emergent application rates of about 0.63 or 0.32 pounds per acre. Other portions of the plants were left untreated to serve as controls. In each test the active ingredient was a 3-methylethyl-1H-2,1,3-benzothiadiazin-4(3H)-one-2,2-dioxide having a substituent in the one position according to the invention.
(§3) After a period of 2 weeks the selective effect of the test ingredient on the plants was evaluated by a comparison with the control group of plants.

Pig Weed = assay: General post-emergent herbicidal activity at 10 lbs/acre, Pig Weed; settings: post-emergence, 336 h
Description: as §2, with “[…], […]” for “emulsifier or dispersant with water to provide solution containing 250 or 125 ppm active ingredient, employing sufficient amounts of the treating composition to provide low post emergent application rates of about 0.63 or 0.32 pounds per acre.”
as §3

Velvet Leaf [1] = assay: General post-emergent herbicidal activity at 10 lbs/acre, Velvet Leaf; settings: post-emergence, 336 h
Description: as §2, with “[…], […]” for “emulsifier or dispersant with water to provide solution containing 250 or 125 ppm active ingredient, employing sufficient amounts of the treating composition to provide low post emergent application rates of about 0.63 or 0.32 pounds per acre.”
as §3

Annual Morning Glory = assay: General post-emergent herbicidal activity at 10 lbs/acre, Annual Morning Glory; settings: Ipomoea, post-emergence, 336 h
Description: as §2, with “[…], […]” for “emulsifier or dispersant with water to provide solution containing 250 or 125 ppm active ingredient, employing sufficient amounts of the treating composition to provide low post emergent application rates of about 0.63 or 0.32 pounds per acre.”
as §3

Velvet Leaf [2] = assay: Selective post-emergent greenhouse test, Velvet Leaf; settings: post-emergence, 336 h, 2 weeks; for pest or weed control at 358.672 g/ha: 0.32 lbs/acre; for pest or weed control at 706.135 g/ha: 0.63 lbs/acre
Description: as §1, §2, §3

Nutsedge = assay: General post-emergent herbicidal activity at 10 lbs/acre, Nutsedge; settings: Cyperus, post-emergence, 336 h
Description: as §2, with “[…], […]” for “emulsifier or dispersant with water to provide solution containing 250 or 125 ppm active ingredient, employing sufficient amounts of the treating composition to provide low post emergent application rates of about 0.63 or 0.32 pounds per acre.”
as §3

Cotton = assay: Selective post-emergent greenhouse test, Cotton (crop injury); settings: Gossypium hirsutum, post-emergence, 336 h, post-emergent, 2 weeks, crop, read-out: % Control Cotton; for plant injury at 358.672 g/ha: 0.32 lbs/acre; for plant injury at 706.135 g/ha: 0.63 lbs/acre
Description: as §1, §2, §3

Jimson Weed = assay: Selective post-emergent greenhouse test, Jimson Weed; settings: post-emergence, 336 h, 2 weeks; for pest or weed control at 358.672 g/ha: 0.32 lbs/acre; for pest or weed control at 706.135 g/ha: 0.63 lbs/acre
Description: as §1, §2, §3

## CCSC(=O)N1c2ccccc2C(=O)N(C(C)C)S1(=O)=O [COSCH2 CH3, 1H-2,1,3-Benzothiadiazine-1-carbothioic acid: 3,4-Dihydro-3-(1-methylethyl)-4-oxo, S-ethyl ester; 2,2-dioxide]
Soybean
  plant injury at 358.672 g/ha: 0%
  plant injury at 706.135 g/ha: 0%
Pig Weed
  pest or weed control at 11208.5 g/ha: 100%
Velvet Leaf [1]
  pest or weed control at 11208.5 g/ha: 100%
Annual Morning Glory
  pest or weed control at 11208.5 g/ha: 100%
Velvet Leaf [2]
  pest or weed control at 358.672 g/ha: 100%
  pest or weed control at 706.135 g/ha: 100%
Nutsedge
  pest or weed control at 11208.5 g/ha: 95%
Cotton
  plant injury at 358.672 g/ha: 100%
  plant injury at 706.135 g/ha: 100%
Jimson Weed
  pest or weed control at 358.672 g/ha: 100%
  pest or weed control at 706.135 g/ha: 100%

## CC(C)N1C(=O)c2ccccc2N(C(=O)CCl)S1(=O)=O [COCH2 Cl, 1-(2-Chloroacetyl)-3-(1-methylethyl)-1H-2,1,3-benzothiadiazin-4(3H)-one-2,2-Dioxide]
Soybean
  plant injury at 358.672 g/ha: 10%
  plant injury at 706.135 g/ha: 10%
Pig Weed
  pest or weed control at 11208.5 g/ha: 100%
Velvet Leaf [1]
  pest or weed control at 11208.5 g/ha: 100%
Annual Morning Glory
  pest or weed control at 11208.5 g/ha: 100%
Velvet Leaf [2]
  pest or weed control at 358.672 g/ha: 70%
  pest or weed control at 706.135 g/ha: 100%
Nutsedge
  pest or weed control at 11208.5 g/ha: 100%
Cotton
  plant injury at 358.672 g/ha: 20%
  plant injury at 706.135 g/ha: 70%
Jimson Weed
  pest or weed control at 358.672 g/ha: 100%
  pest or weed control at 706.135 g/ha: 100%

## CC=CC(=O)N1c2ccccc2C(=O)N(C(C)C)S1(=O)=O [COCHCHCH3, 1H-2,1,3-Benzothiadiazin-4(3H)-one: 3-(1-methylethyl)-1-(1-oxo-2-butenyl)-;2,2-dioxide]
Soybean
  plant injury at 358.672 g/ha: 0%
  plant injury at 706.135 g/ha: 0%
Pig Weed
  pest or weed control at 11208.5 g/ha: 100%
Velvet Leaf [1]
  pest or weed control at 11208.5 g/ha: 100%
Annual Morning Glory
  pest or weed control at 11208.5 g/ha: 100%
Velvet Leaf [2]
  pest or weed control at 358.672 g/ha: 70%
  pest or weed control at 706.135 g/ha: 100%
Nutsedge
  pest or weed control at 11208.5 g/ha: 90%
Cotton
  plant injury at 358.672 g/ha: 0%
  plant injury at 706.135 g/ha: 0%
Jimson Weed
  pest or weed control at 706.135 g/ha: 100%

## CCN(CC)S(=O)(=O)N1c2ccccc2C(=O)N(C(C)C)S1(=O)=O [SO2 N(C2 H5)2]
Pig Weed
  pest or weed control at 11208.5 g/ha: 100%
Velvet Leaf [1]
  pest or weed control at 11208.5 g/ha: 100%
Annual Morning Glory
  pest or weed control at 11208.5 g/ha: 100%
Nutsedge
  pest or weed control at 11208.5 g/ha: 60%

## CSC(=O)N1c2ccccc2C(=O)N(C(C)C)S1(=O)=O [COSCH3, 1H-2,1,3-Benzothiadiazin-1-carbothioic acid: 3,4-Dihydro-3-(1-methylethyl)-4-oxo-, S-methyl ester; 2,2-Dioxide]
Soybean
  plant injury at 358.672 g/ha: 0%
  plant injury at 706.135 g/ha: 0%
Pig Weed
  pest or weed control at 11208.5 g/ha: 100%
Velvet Leaf [1]
  pest or weed control at 11208.5 g/ha: 100%
Annual Morning Glory
  pest or weed control at 11208.5 g/ha: 100%
Velvet Leaf [2]
  pest or weed control at 358.672 g/ha: 90%
  pest or weed control at 706.135 g/ha: 100%
Nutsedge
  pest or weed control at 11208.5 g/ha: 85%
Cotton
  plant injury at 358.672 g/ha: 90%
  plant injury at 706.135 g/ha: 100%
Jimson Weed
  pest or weed control at 358.672 g/ha: 100%
  pest or weed control at 706.135 g/ha: 100%

## COC(=O)CCC(=O)N1c2ccccc2C(=O)N(C(C)C)S1(=O)=O [COCH2 CH2 CO2 CH3, 1H-2,1,3-Benzothiadiazin-1-butanoic acid; γ,4-Dioxo-3-(1-methylethyl)-3,4-dihydro-, methyl ester; 2,2-dioxide]
Velvet Leaf [1]
  pest or weed control at 11208.5 g/ha: 100%
Annual Morning Glory
  pest or weed control at 11208.5 g/ha: 100%
Nutsedge
  pest or weed control at 11208.5 g/ha: 95%

## COC(=O)N1c2ccccc2C(=O)N(C(C)C)S1(=O)=O [CO2 CH3]
Soybean
  plant injury at 358.672 g/ha: 0%
  plant injury at 706.135 g/ha: 0%
Pig Weed
  pest or weed control at 11208.5 g/ha: 100%
Velvet Leaf [1]
  pest or weed control at 11208.5 g/ha: 100%
Annual Morning Glory
  pest or weed control at 11208.5 g/ha: 100%
Velvet Leaf [2]
  pest or weed control at 358.672 g/ha: 100%
  pest or weed control at 706.135 g/ha: 100%
Nutsedge
  pest or weed control at 11208.5 g/ha: 50%
Cotton
  plant injury at 358.672 g/ha: 0%
  plant injury at 706.135 g/ha: 10%
Jimson Weed
  pest or weed control at 358.672 g/ha: 100%
  pest or weed control at 706.135 g/ha: 100%

## CCCCOC(=O)N1c2ccccc2C(=O)N(C(C)C)S1(=O)=O [CO2 (CH2)3 CH3]
Pig Weed
  pest or weed control at 11208.5 g/ha: 100%
Velvet Leaf [1]
  pest or weed control at 11208.5 g/ha: 100%
Annual Morning Glory
  pest or weed control at 11208.5 g/ha: 100%
Nutsedge
  pest or weed control at 11208.5 g/ha: 95%

## CCCC(=O)N1c2ccccc2C(=O)N(C(C)C)S1(=O)=O [COCH2 CH2 CH3]
Pig Weed
  pest or weed control at 11208.5 g/ha: 100%
Velvet Leaf [1]
  pest or weed control at 11208.5 g/ha: 100%
Annual Morning Glory
  pest or weed control at 11208.5 g/ha: 100%
Nutsedge
  pest or weed control at 11208.5 g/ha: 90%

## CC(C)OC(=O)N1c2ccccc2C(=O)N(C(C)C)S1(=O)=O [CO2 CH(CH3)2]
Pig Weed
  pest or weed control at 11208.5 g/ha: 0%
Velvet Leaf [1]
  pest or weed control at 11208.5 g/ha: 100%
Annual Morning Glory
  pest or weed control at 11208.5 g/ha: 50%
Nutsedge
  pest or weed control at 11208.5 g/ha: 70%
